Measured values taken from patent US8932597B2 (priority 2008, dated 2015).

System: anti-M2 human monoclonal antibody Z3G1
Type: binding

Row | Substance | Signal (peptides that bind to Z3G1) | Signal (peptides that show specific binding to Z3G1)
1 | 1381 (CLLTEVETPCRNEWG; epitope peptide) [compound 1381] | 2074 | 
2 | 1310 (MSLLTEVWTPIRNEWGCRCN; epitope peptide) [compound 1310] | 2546 | 
3 | 1513 (CEVETPIRNELLTEVETPICETPIRNEWG; epitope peptide; MISC_FEATURE (1)..(1): C is an attachment site for a CLIP; MISC_FEATURE (10)..(10): E is an attachment site for a CLIP; MISC_FEATURE (11)..(11): L is an attachment site for a CLIP; MISC_FEATURE (29)..(29): G is an attachment site for a CLIP) [compound 1513] |  | 2466
4 | 1556 (CSCLCEVGSLLCEV; epitope peptide) [compound 1556] |  | 1583
5 | 1297 (MSLLTQVETPIRNEWGCRCN; epitope peptide) [compound 1297] | 1697 | 
6 | 1553 (CLLTEVGSLLCEV; epitope peptide) [compound 1553] |  | 2168
7 | 1361 (SLLCEVETPIRNC; epitope peptide) [compound 1361] | 2460 | 
8 | 1302 (MSLLTEVGTPIRNEWGCRCN; epitope peptide) [compound 1302] | 2789 | 
9 | 1574 (RLLTEVETPIRNEWGCRCNDSSD; epitope peptide) [compound 1574] |  | 1338
10 | 1338 (MSLLCEVGMSLCTEV; epitope peptide) [compound 1338] | 2595 | 
11 | 1367 (SLLCEVCTPIRNE; epitope peptide) [compound 1367] | 2283 | 
12 | 1306 (MSLLTEVLTPIRNEWGCRCN; epitope peptide) [compound 1306] | 2714 | 
13 | 1572 (PLLTEVETPIRNEWGCRCNDSSD; epitope peptide) [compound 1572] |  | 1641
14 | 1250 (MALLTEVETPIRNEWGCRCN; epitope peptide) [compound 1250] | 2604 | 
15 | 1587 (SLLNEVETPIRNEWGCRCNDSSD; epitope peptide) [compound 1587] |  | 2425
16 | 1390 (SLLCEVETPIRCEWG; epitope peptide) [compound 1390] | 2601 | 
17 | 1264 (MVLLTEVETPIRNEWGCRCN; epitope peptide) [compound 1264] | 2465 | 
18 | 1590 (SLLWEVETPIRNEWGCRCNDSSD; epitope peptide) [compound 1590] |  | 2221
19 | 1261 (MPLLTEVETPIRNEWGCRCN; epitope peptide) [compound 1261] | 2521 | 
20 | 1458 (CLTEVETPIRLLTEVETPICTEVETPIRN; epitope peptide; MISC_FEATURE (1)..(1): C is an attachment site for a CLIP; MISC_FEATURE (10)..(10): R is an attachment site for a CLIP; MISC_FEATURE (11)..(11): L is an attachment site for a CLIP; MISC_FEATURE (29)..(29): N is an attachment site for a CLIP) [compound 1458] | 1756 | 
21 | 1327 (MSLLCEVETPICNE; epitope peptide) [compound 1327] | 2704 | 
22 | 1497 (CVETPIRNEWLLTEVETPICVETPIRNEW; epitope peptide; MISC_FEATURE (1)..(1): C is an attachment site for a CLIP; MISC_FEATURE (10)..(10): W is an attachment site for a CLIP; MISC_FEATURE (11)..(11): L is an attachment site for a CLIP; MISC_FEATURE (29)..(29): W is an attachment site for a CLIP) [compound 1497] | 1817 | 
23 | 1269 (MSVLTEVETPIRNEWGCRCN; epitope peptide) [compound 1269] | 2111 | 
24 | 1568 (ILLTEVETPIRNEWGCRCNDSSD; epitope peptide) [compound 1568] |  | 1044
25 | 1391 (SLLCEVETPICNEWG; epitope peptide) [compound 1391] | 2536 | 

Row | Substance | Signal (peptides that bind to Z3G1) | Signal (peptides that show specific binding to Z3G1)
26 | 1446 (CETPIRNEWGLLTEVETPICLTEVETPIR; epitope peptide; MISC_FEATURE (1)..(1): C is an attachment site for a CLIP; MISC_FEATURE (10)..(10): G is an attachment site for a CLIP; MISC_FEATURE (11)..(11): L is an attachment site for a CLIP; MISC_FEATURE (29)..(29): R is an attachment site for a CLIP) [compound 1446] | 2367 | 
27 | 1373 (SLLCEVETPIRNEWGC; epitope peptide) [compound 1373] | 2281 | 
28 | 1555 (SLLTCVGSLLCEV; epitope peptide) [compound 1555] |  | 2264
29 | 1288 (MSLLMEVETPIRNEWGCRCN; epitope peptide) [compound 1288] | 2847 | 
30 | 1366 (SLLCEVECPIRNE; epitope peptide) [compound 1366] | 2377 | 
31 | 1482 (CETPIRNEWGLLTEVETPICEVETPIRNE; epitope peptide; MISC_FEATURE (1)..(1): C is an attachment site for a CLIP; MISC_FEATURE (10)..(10): G is an attachment site for a CLIP; MISC_FEATURE (11)..(11): L is an attachment site for a CLIP; MISC_FEATURE (29)..(29): E is an attachment site for a CLIP) [compound 1482] | 1648 | 
32 | 1283 (MSLLGEVETPIRNEWGCRCN; epitope peptide) [compound 1283] | 2717 | 
33 | 1346 (MCLLTEVGMSLLTCV; epitope peptide) [compound 1346] | 1098 | 
34 | 1554 (SLLCEVGSLLCEV; epitope peptide) [compound 1554] |  | 2399
35 | 1578 (SLLAEVETPIRNEWGCRCNDSSD; epitope peptide) [compound 1578] |  | 2356
36 | 1566 (GLLTEVETPIRNEWGCRCNDSSD; epitope peptide) [compound 1566] |  | 2321
37 | 1567 (HLLTEVETPIRNEWGCRCNDSSD; epitope peptide) [compound 1567] |  | 1946
38 | 1262 (MQLLTEVETPIRNEWGCRCN; epitope peptide) [compound 1262] | 2526 | 
39 | 1393 (SLLCEVETCIRNEWG; epitope peptide) [compound 1393] | 2531 | 
40 | 1475 (CETPIRNEWGSLLTEVETPCEVETPIRNE; epitope peptide; MISC_FEATURE (1)..(1): C is an attachment site for a CLIP; MISC_FEATURE (10)..(10): G is an attachment site for a CLIP; MISC_FEATURE (11)..(11): S is an attachment site for a CLIP; MISC_FEATURE (29)..(29): E is an attachment site for a CLIP) [compound 1475] | 2642 | 
41 | 1588 (SLLREVETPIRNEWGCRCNDSSD; epitope peptide) [compound 1588] |  | 2286
42 | 1480 (CEVETPIRNELLTEVETPICEVETPIRNE; epitope peptide; MISC_FEATURE (1)..(1): C is an attachment site for a CLIP; MISC_FEATURE (10)..(10): E is an attachment site for a CLIP; MISC_FEATURE (11)..(11): L is an attachment site for a CLIP; MISC_FEATURE (29)..(29): E is an attachment site for a CLIP) [compound 1480] | 1394 | 
43 | 1444 (CEVETPIRNELLTEVETPICLTEVETPIR; epitope peptide; MISC_FEATURE (1)..(1): C is an attachment site for a CLIP; MISC_FEATURE (10)..(10): E is an attachment site for a CLIP; MISC_FEATURE (11)..(11): L is an attachment site for a CLIP; MISC_FEATURE (29)..(29): R is an attachment site for a CLIP) [compound 1444] | 2000 | 
44 | 1347 (MSLLCEVGMSLLTCV; epitope peptide) [compound 1347] | 2784 | 
45 | 1307 (MSLLTEVNTPIRNEWGCRCN; epitope peptide) [compound 1307] | 2807 | 
46 | 1274 (MSLNTEVETPIRNEWGCRCN; epitope peptide) [compound 1274] | 2787 | 
47 | 1254 (MGLLTEVETPIRNEWGCRCN; epitope peptide) [compound 1254] | 2635 | 
48 | 1495 (CTEVETPIRNLLTEVETPICVETPIRNEW; epitope peptide; MISC_FEATURE (1)..(1): C is an attachment site for a CLIP; MISC_FEATURE (10)..(10): N is an attachment site for a CLIP; MISC_FEATURE (11)..(11): L is an attachment site for a CLIP; MISC_FEATURE (29)..(29): W is an attachment site for a CLIP) [compound 1495] | 2088 | 
49 | 1334 (MSLLCEVGMCLLTEV; epitope peptide) [compound 1334] | 2676 | 
50 | 1461 (CVETPIRNEWLLTEVETPICTEVETPIRN; epitope peptide; MISC_FEATURE (1)..(1): C is an attachment site for a CLIP; MISC_FEATURE (10)..(10): W is an attachment site for a CLIP; MISC_FEATURE (11)..(11): L is an attachment site for a CLIP; MISC_FEATURE (29)..(29): N is an attachment site for a CLIP) [compound 1461] | 1835 | 
